# According to patent US8202910B2 (Sequella, Inc., priority 2006, dated 2012):
# “And” between values parts separate entries of the source, which are not always exact repeats. Identical values can stand only once. Like-named read-outs stand apart in the source and are kept apart here.
# Experiments:
# [1] = tested on: H37Rv strain of Mycobacterium tuberculosis; experiment: microbe, parasite or virus in culture; assay type: cell-based
# cells = experiment: LD50 for selectivity index (Table 10); assay type: cell-based, Mycobacterium tuberculosis; conditions: for SI (Selectivity Index): LD50 : MIC
# From the text: Table 10 lists MIC and LD50 data for selected compounds. […] Table 11 lists MIC data for purified substituted ethylene diamines in comparison to ethambutol (EMB).
# [2] = tested on: monkey kidney cells (Vero); experiment: In vitro toxicity, Vero cells; assay type: cell-based; conditions: Primates
# Experimental: Twenty six compounds (including 37, 59 and 109) were tested in an in vitro model of toxicity using monkey kidney cells (Vero) and human cervical cancer cells (HeLa) using methods well known to those skilled in the art. The data from this toxicity testing and the MIC data were used to calculate a selectivity index (SI), the ratio of IC50:MIC (Table 15). Selectivity Indexes were ranging from 1.76 to 16.67.
# M. tuberculosis H37Rv = experiment: In vivo efficacy, mice infected i.v. with M. tuberculosis, CFU in spleen and lungs; design: species or system C57BL/6 mice; conditions: for activity in vivo, spleen and lung: 25 mg/kg, 5×10^6 CFU, 4 weeks
# wild type of M.tb = experiment: MIC, secondary screening, wild type; assay type: cell-based, Mycobacterium tuberculosis; conditions: Mycobacterium tuberculosis, WT; EMB, RL241, Cmpd#59 as 2HCl salt, Cmpd#109 as 2CF3COOH salt; read-out: MIC
# [3] = Mycobacterium tuberculosis, H37RV, read-out: MIC
# [4] = concentration at which 50% of the cells are killed
# [5] = Mycobacterium tuberculosis, H37RV, Table 10, from uM and MW, read-out: MIC
# [6] = Mycobacterium tuberculosis, H37RV, Table 10, read-out: MIC
# [7] = Mycobacterium tuberculosis, H37RV, Table 15, read-out: MIC
compound,measurement,setting,value
CCC(CO)NCCN[C@@H]1C[C@@H]2CC([C@H]1C)C2(C)C (mixture of isomers) [Compound 68],MIC,[1]; [3],500 µM
COc1ccc(CCNCCNCC23CC4CC(CC(C4)C2)C3)cc1OC [Compound 4],MIC,[1],62.5 µM
same,MIC,[1]; [3],125 µM
CC(CNCCC(c1ccccc1)c1ccccc1)NCC12CC3CC(CC(C3)C1)C2 (stereo not drawn) [Compound 6],SI (Selectivity Index),cells,2.56
same,LD50,cells; [4],20 µM
same,LD50,cells; from uM and MW,10.72 µg/mL
same,MIC,[1]; [5],4.19 mg/L
same,MIC,[1]; [6],7.81 µM
"CC1CC(C)CN(CCNCCC(c2ccccc2)c2ccccc2)C1 (stereo not drawn) [Compound 15, 1-{2-[N-(3,3-Diphenylpropyl)]-aminoethyl}-3,5-dimethyl-piperidine]",MIC,[1],250 µM and 500 µM
same,MIC,[1]; [3],> 500 µM
"CC1CCCC(NCCNCC(c2ccccc2)c2ccccc2)C1C (stereo not drawn) [Compound 29, N-(2,2-Diphenylethyl)-N′-(2,3-dimethylcylcohexyl)ethane-1,2-diamine]",MIC,[1],31.25 µM
same,MIC,[1]; [3],62.5 µM
"CC(C)(C)CC(C)(C)NCCNCC(c1ccccc1)c1ccccc1 [Compound 33, N-(2,2-Diphenylethyl)-N′-(1,1,3,3-tetramethylbutyl)-ethane-1,2-diamine]",MIC,[1],31.25 µM
same,MIC,[1]; [3],62.5 µM
"c1ccc(C(CNCCNCC23CC4CC(CC(C4)C2)C3)c2ccccc2)cc1 [Compound 34, N-(2,2-Diphenylethyl)-N′-(1-methyladamantyl)ethane-1,2-diamine]",SI (Selectivity Index),cells,4.096
same,LD50,cells; [4],32 µM
same,LD50,cells; from uM and MW,16.256 µg/mL
same,MIC,[1]; [5],3.97 mg/L
same,MIC,[1]; [6],7.81 µM
"CC(CNCC(c1ccccc1)c1ccccc1)NCC1CCC2C[C@@H]1C2(C)C (stereo partly drawn) [Compound 38, N-(−)-cis-(Myrtanyl)-N′-(2,2-diphenylethyl)propyl-1,2-diamine]",MIC,[1]; [7],6.25 µM
same,IC50,[2],33 µM
"C[C@@H]1C2C[C@@H](C[C@H]1NCCNCC(c1ccccc1)c1ccccc1)C2(C)C [Compound 40, N-(2,2-Diphenylethyl)-N′-(1R,2R,3R,5S)-(−)-isopinocampheylethane-1,2-diamine]",MIC,[1]; [7],15.6 µM
same,IC50,[2],25 µM
"CC1CCCC(NCCNC[C@@H]2CCC3C[C@@H]2C3(C)C)C1C (stereo partly drawn) [Compound 41, N-(−)-cis-(Myrtanyl)-N′-(2,3-dimethylcyclohexyl)ethane-1,2-diamine]",MIC,[1]; [7],3.13 µM
same,IC50,[2],19 µM
"C[C@@H]1C2C[C@@H](C[C@H]1NCCNCC1CCC3C[C@@H]1C3(C)C)C2(C)C (stereo partly drawn) [Compound 47, N-(−)-cis-Myrtanyl-N′-(1R, 2R, 3R, 5S)-(−)-isopinocampheylethane-1,2-diamine]",SI (Selectivity Index),cells,1.6
same,LD50,cells; [4],25 µM
same,LD50,cells; from uM and MW,11.3 µg/mL
same,MIC,[1]; [5],7.06 mg/L
same,MIC,[1]; [6],15.6 µM
"C[C@@H]1[C@@H](NCCNC2CCCCCCC2)C[C@H]2C[C@@H]1C2(C)C [Compound 53, N-Cyclooctyl-N′-(1S, 2S, 3S, 5R)-(+)-isopinocampheyl-ethane-1,2-diamine]",MIC,[1]; [3],31.2 µM
"C1CCCC(NCCNCC23CC4CC(CC(C4)C2)C3)CCC1 [Compound 55, N-(Cyclooctyl)-N′-(1-methyladamantyl)ethane-1,2-diamine]",MIC,[1],15.625 µM and 15.6 µM
same,MIC,[1]; [7],15.6 µM
same,MIC,[1]; [3],15.6 µM
same,IC50,[2],34 µM
"CC[C@@H](CO)NCCNC1CCCCCCC1 [Compound 56, N-(Cyclooctyl)-N′-(2S)-[2-(1-hydroxybutyl)]ethane-1,2-diamine]",MIC,[1],>500 µM
same,MIC,[1]; [3],500 µM
"CC1(C)C2CCC(CNCCNC3CCCCCCC3)[C@@H]1C2 (stereo partly drawn) [Compound 57, N-(−)-cis-Myrtanyl-N′-(cyclooctyl)ethane-1,2-diamine]",SI (Selectivity Index),cells,1.152
same,LD50,cells; [4],18 µM
same,LD50,cells; from uM and MW,7.668 µg/mL
same,MIC,[1]; [5],6.66 mg/L
same,MIC,[1]; [6],15.6 µM
same,MIC,[1]; [7],11.7 µM
same,IC50,[2],22 µM
"C1CCCC(NCCNC2C3CC4CC(C3)CC2C4)CCC1 (stereo not drawn) [Compound 58, N-(Cyclooctyl)-N′-(2-adamantyl)ethane-1,2-diamine]","activity in vivo, spleen and lung",M. tuberculosis H37Rv,active in vivo in both spleen and lung
same,MIC,[1]; [7],12.5 µM
same,IC50,[2],82 µM
CC(NCCNC1CCCCCCC1)c1cccc2ccccc12 (stereo not drawn) [Compound 61],MIC,[1],31.25 µM
same,MIC,[1]; [3],62.5 µM
"c1ccc(C2CC2NCCNC2CCCCCCC2)cc1 (stereo not drawn) [Compound 63, N-(Cyclooctyl)-N′-trans-(2-phenylcyclopropyl)ethane-1,2-diamine]",MIC,[1],31.25 µM
same,MIC,[1]; [3],62.5 µM
"c1ccc(C2CC2NCCNC2C3CC4CC(C3)CC2C4)cc1 (stereo not drawn) [Compound 64, N-(2-Adamantyl)-N′- trans-(2-phenylcyclopropyl)ethane-1,2-diamine]",MIC,[1]; [3],31.2 µM
"c1ccc(C2CC2NCCNC23CC4CC(CC(C4)C2)C3)cc1 (stereo not drawn) [Compound 65, N-(1-Adamantyl)-N′- trans-(2-phenylcyclopropyl)ethane-1,2-diamine]",SI (Selectivity Index),cells,3.84
same,LD50,cells; [4],60 µM
same,LD50,cells; from uM and MW,25.8 µg/mL
same,MIC,[1],31.25 µM
same,MIC,[1]; [5],6.72 mg/L
same,MIC,[1]; [6],15.6 µM
same,MIC,[1]; [3],15.6 µM
"C[C@@H]1C2C[C@@H](C[C@H]1NCCNCCC(c1ccccc1)c1ccccc1)C2(C)C [Compound 66, N-(3,3-Diphenylpropyl)-N′-(1R, 2R, 3R, 5S)-(−)-isopinocampheylethane-1,2-diamine]",MIC,[1]; [7],15.6 µM
same,IC50,[2],28 µM
"C[C@@H]1C2C[C@@H](C[C@H]1NCCNC(c1ccccc1)c1ccccc1)C2(C)C [Compound 71, N-(1,1-Diphenylmethyl)-N′-(1R, 2R, 3R, 5S)-(−)-isopinocampheylethane-1,2-diamine]",MIC,[1],31.25 µM
same,MIC,[1]; [3],62.5 µM
"COc1ccccc1CCNCCNC1C2CC3CC(C2)CC1C3 (stereo not drawn) [Compound 73, N-(2-Adamantyl)-N′-[2-(2-methoxyphenyl)ethyl]ethane-1,2-diamine]",activity in the spleen compared with EMB,"M. tuberculosis H37Rv; 1 mg/kg and 10 mg/kg, 5×10^5 CFU, chemotherapy from day 20",equal to that of EMB at 100 mg/kg
same,MIC,[1]; [7],12.5 µM
same,IC50,[2],81 µM
"C=CCN(CCNCCc1ccccc1OC)C1CCCC1 [Compound 76, N-Allyl-N-cyclopentyl-N′-[2-(2-methoxyphenyl)ethyl]ethane-1,2-diamine]",MIC,[1],31.25 µM
same,MIC,[1]; [3],62.5 µM
"c1ccc2c(c1)CC(NCCNC1C3CC4CC(C3)CC1C4)C2 (stereo not drawn) [Compound 78, N-2-Adamantyl-N′-2,3-dihydro-1H-inden-2-yl-ethane-1,2-diamine]",MIC,[1]; [7],15.6 µM
same,IC50,[2],130 µM
"C1CCCC(NCCNC2CCCCCCC2)CCC1 [Compound 103, N,N′-Bis(cyclooctyl)ethane-1,2-diamine]",MIC,[1],62.5 µM
same,MIC,[1]; [3],31.2 µM
CCOCCCNCCNCC(c1ccccc1)c1ccccc1 [Compound 107],MIC,[1],250 µM
same,MIC,[1]; [3],500 µM
"CCC1CCCCN1CCNC/C=C(\C)CCC=C(C)C (stereo not drawn) [Compound 111, N-[2-(N′-Geranyl)aminoethyl]-2-ethylpiperidine]",SI (Selectivity Index),cells,5.632
same,LD50,cells; [4],44 µM
same,LD50,cells; from uM and MW,18.128 µg/mL
same,anti-tuberculosis activity compared with EMB,"M. tuberculosis H37Rv; 10 mg/kg, B6 mice, 5×10^5 CFU, chemotherapy from day 20",comparable to that of EMB at 100 mg/kg
same,"activity in vivo, spleen and lung",M. tuberculosis H37Rv,active in vivo in both spleen and lung
same,MIC,[1],7.813 µM and 7.8 µM
same,MIC,[1]; [5],3.22 mg/L
same,MIC,[1]; [6],7.81 µM
same,MIC,[1]; [7],7.81 µM
same,MIC,[1]; [3],7.81 µM
same,IC50,[2],45 µM
"C=CCN(CCNCCc1ccccc1Cl)C1CCCC1 [Compound 118, N-2-(2-Chlorophenyl)ethyl-N′-allyl-N′-(cyclopentyl)ethane-1,2-diamine]",MIC,[1],62.5 µM
same,MIC,[1]; [3],31.2 µM
"Fc1cccc(CCNCCNCCc2ccccc2Cl)c1 [Compound 119, N-2-(2-Chlorophenyl)ethyl-N′-[2-(3-fluorophenyl)-ethyl]ethane-1,2-diamine]",MIC,[1],62.5 µM
same,MIC,[1]; [3],125 µM
"CC(CNC[C@@H]1CCC2C[C@@H]1C2(C)C)NCC1CCC2C[C@@H]1C2(C)C (stereo partly drawn) [Compound 125, N,N′-bis-(−)-cis-Myrtanylpropane-1,2-diamine]",MIC,[1],15.625 µM
same,MIC,[1]; [3],15.6 µM
"CC(NCCNCC(c1ccccc1)c1ccccc1)C(O)c1ccc(O)c(O)c1 (stereo not drawn) [Compound 134, N-[2-(N′-2,2-Diphenylethyl)-aminoethyl]-(−)-3,4-dihydroxynorephedrine]",MIC,[1],500 µM
same,MIC,[1]; [3],> 500 µM
"COc1ccccc1CCNCCN[C@@H]1C[C@@H]2CC([C@H]1C)C2(C)C [Compound 151, N-[2-(2-Methoxy)phenylethyl]-N′-(1R, 2R, 3R, 5S)-(−)-isopinocampheyl-ethane-1,2-diamine]",SI (Selectivity Index),cells,5.248
same,LD50,cells; [4],41 µM
same,LD50,cells; from uM and MW,18.45 µg/mL
same,MIC,[1],7.813 µM
same,MIC,[1]; [5],3.52 mg/L
same,MIC,[1]; [6],7.81 µM
same,MIC,[1]; [3],15.6 µM
"COc1ccc(CCNCC(NCCc2ccc(F)cc2)c2ccccc2)cc1 (stereo not drawn) [Compound 164, N^1-[2-(4-fluorophenyl)ethyl]-N^2-[2-(4-Methoxy)phenylethyl)-1-phenylethane-1,2-diamine]",MIC,[1],125 µM
same,MIC,[1]; [3],62.5 µM
CC1(C)CC2CC(C)(CN2CCNC[C@@H]2CCC3C[C@@H]2C3(C)C)C1 [MP 116],MIC,wild type of M.tb,6.25 mg/L
C[C@@H]1C2C[C@@H](C[C@H]1NCCNC[C@@H]1CCC3C[C@@H]1C3(C)C)C2(C)C [MP 117],MIC,wild type of M.tb,6.25 mg/L
"C(CNC1C2CC3CC(C2)CC1C3)NC1C2CC3CC(C2)CC1C3 (stereo not drawn) [SQBisAd, Bis(2-Adamantyl)ethylenediamine]",MIC (Minimal Inhibitory Concentration) compared with compound 109,[1],equal or better than compound 109
